Tested on: 5-HT1
Test: Radioligand receptor binding assay
Method: Receptor binding assays. Receptor binding assays were performed by MDS Pharma services. Assays included: Adenosine A1 (cat# 200510), Adenosine A2A (cat# 200610), Adenosine A3 (cat# 200720), Adrenergic alpha 1 (cat# 203500), Imidazoline 12 central (cat# 241000), Imidazoline I2 peripheral (cat# 241100), Inositol triphosphate (cat# 242500), Phorbol Ester (cat# 264500), 5-HT 2B (cat# 271700), and 5-HT 4 (cat# 272000).
• Summary of radioligand binding assays for 11 receptors. Data represent % inhibition of ligand binding in the presence of 10 μM 18264 (n=2).
• Summary of radioligand binding assays for three receptors. Data represent % inhibition of ligand binding in the presence of 10 μM 20068 (n=2).

% Inhibition of Binding (10 μM compound, n=2): −25% | binding (in words) (radioligand binding, 10 μM): No significant binding
Structure (SMILES): Cc1c(-c2ccccc2)nc2sc3c(c2c1N)CCCC3 [Compound 18264, 3-Methyl-2-phenyl-5,6,7,8-tetrahydro-benzo[4,5]thieno[2,3-b]pyridin-4-ylamine]
